Data on six compounds can be found in US12157740B2, “Triazolopyridines and triazolopyrimidines that lower stress-induced p-tau” (NantNeuro, LLC, priority 2015, dated 2024).

For series [1], the system named is tau and p-tau in SH-Sy5Y cells. Put plainly: screens for tau and p-tau levels in SH-Sy5Y cells (no CRF stated). Type of series: cell-based. Particulars: for tau and/or p-tau lowering effect compared with J03: SH-Sy5Y screens (J04: p-tau only, FIG. 19; J17: FIGS. 21A-B; J14: FIG. 28A). How it is done:
As described below, in vitro studies were performed using SHSY-5Y cells. These cells are a useful neurological model that differentiate into cells with morphological and biochemical characteristics of mature neurons including mature isoforms of tau. […]

A further series concerns tau and p-tau. The series can be described thus: effect of J03 and J19 on tau and p-tau (FIG. 39E-39F, system not given). An excerpt: JI9 decreased tau and both J03 and JI9 decreased p-tau (FIG. 39E). Therefore, while the p-tau/tau ratio looks unchanged for J19 FIG. 39F. This is due to the tau decrease and not due to a lack of effect.
The subject of series [2] is tau and phospho-tau in SHSY-5Y cells. The series can be described thus: CRF-induced tau, p-tau and sAPPα changes in SHSY-5Y cells. Type of series: cell-based. The following applies: for p-tau/tau ratio: FIG. 32C.
Series [3] in a line: in vivo pharmacokinetics, plasma and brain levels. The arrangement: species or system mouse. The following applies: for brain levels after subcutaneous injection: peak for J14 and J19; for time of peak levels after SQ injection: plasma and brain (J19: brain); for levels after oral delivery compared with injection: J32: plasma and brain.
The test system of another series is J20 mice. Put plainly: J17 pilot study in J20 mice (oral, 28 days). It is filed as in vivo, mouse. Here is the method: (§1) Animal experiments were performed using J20 mice. The J20 mouse is a model of for Alzheimer's disease. This model overexpresses human APP with two mutations linked to familial Alzheimer's disease (the APP KM670/671NL (Swedish) and 5APP V717F (Indiana) mutations).
In a J17 pilot study (#1 pilot study) male and female J20 mice were housed singly and treated with J17 at 10 rnkd by oral delivery for 28 days.

For another series, the system named is mice. The series can be described thus: J14 daily SQ injection for 12 days in mice. It is filed as in vivo, mouse. Here is the method:
as §1
FIGS. 31A-31F depict total sAPPα, Aβ1-40, and Aβ1-42, and tau, p-tau, and p-tau/tau ratio, respectively, after daily SQ injection at 10 mkd does for 12 days.

Where [4] appears, read: compared to a control J03, FIGS. 33A-33B.
The mark [5] stands for this setting: primary screen in SH-Sy5Y cells, FIG. 19.
[6] abbreviates: 10 mg/kg intraperitoneal, FIG. 33D.
Where [7] appears, read: CRF-1 at 0 nM, 50 nM and 100 nM, FIGS. 29B-29C.
Where [8] appears, read: CRF-1 at 100 nM for 3 days, compound at 20 nM, FIG. 29A.

Structures are written as SMILES.

Regarding `CCC(COC)n1nnc2c(N(C)c3ccc(OC)cc3C)nc(C)nc21` (centres unmarked) [J30], the total tau levels entry in series [1] (setting [4]) is on record as “lowered”.

Regarding `CCC(COC)Nc1nc(C)nc2c1nnn2-c1ccc(Cl)cc1C` (centres unmarked) [J19, 3-(4-Chloro-2-methylphenyl)-N-(1-methoxybutan-2-yl)-5-methyl-3H-[1,2,3]triazolo[4,5-d]pyrimidin-7-amine], the p-tau result is reported as “decreased” in the series on tau and p-tau (FIG. 39E); “significantly reduced” in series [2] (in the presence and absence of CRF, FIG. 32B). Besides, the tau result is given as “decreased” in the series with tau and p-tau (FIG. 39E); “trend to decrease” in series [2] (in the absence of CRF and in the presence of 100 nM CRF, FIG. 32A). Moreover, the p-tau/tau ratio entry with tau and p-tau (FIG. 39F as printed, due to the tau decrease) is listed as “unchanged”; in series [2] (at 50 and 100 nM CRF) it was “highly significantly decreased”; in series [2] (in the absence of CRF) it was “decreased”. In series [2] (with and without CRF, FIG. 32D), the sAPPα result was “trend for sAPPα to be higher”. Also, the “brain levels after subcutaneous injection” value in series [3] (10 mg/kg SQ) is listed as about 190 ng/g. Besides, the “time of peak levels after SQ injection” value in series [3] (10 mg/kg SQ) turned out to be 4 h. Also, in series [3] (10 mg/kg oral), the “levels after oral delivery compared with injection” value is “much lower”. Moreover, the “persistence of brain levels after SQ injection” value in series [3] (10 mkd SQ, FIG. 32G) is given as “relatively high until 8 hours”.

On to `CCC(COC)n1nnc2c(Nc3ccc(OC)cc3C)nc(C)nc21` (centres unmarked) [J04], for which the “tau and/or p-tau lowering effect compared with J03” value in series [1] is listed as “same level as J03”. Also, in series [1] (setting [5]), the p-tau entry is “did lower” and the tau entry is “did not lower”. Moreover, the “clearance after injection compared with oral delivery” value in series [3] (SQ injection, FIG. 20A) is listed as “slower”. In addition, in series [3] (dose not given, FIG. 20A), the “brain levels after SQ injection” value was about 55 ng/g and the “brain levels after oral delivery” value was about 55 ng/g.

Regarding `CCC(COC)N(C)c1nc(C)nc2c1nnn2-c1c(C)cc(C)cc1C` (centres unmarked) [J32], the p-tau/tau ratio result in series [1] (1p M of J32 in SH-SY5Y cells, compared to J03 and a control, FIG. 33C) is “significant decrease”. Further, the p-tau/tau ratio entry in series [1] (setting [4]) is recorded as “significantly lowered”. In series [3] (10 mg/kg SQ), the “brain/plasma ratio after SQ injection” value came to 0.75 and the “time of peak levels after SQ injection” value turned out to be 1 h. In series [3] (setting [6]), the “clearance from brain after IP injection” value is “cleared out slowly over 8 hours” and the “time of peak brain levels after IP injection” value came out at 2 h. The “levels after oral delivery compared with injection” value in series [3] (10 mg/kg oral) is listed as “much lower”.

Regarding `CCC(COC)Nc1nc(C)nc2c1nnn2-c1ccc(OC)cc1C` (centres unmarked) [J17], in series [2] (FIG. 21D), the “tau after exposure to CRF” value is “decreased”. For the same compound, the “p-tau after exposure to CRF” value in series [2] (FIG. 21E) is reported as “decreased”. The “p-tau with increasing concentrations of CRF” value in series [2] (seen at all concentrations of CRF tested, excluding 0, FIG. 22C) is given as “decrease”. The “sAPPα with increasing concentrations of CRF” value in series [2] (seen without CRF and at 50 nM, not at other concentrations, FIG. 22A) was “decrease”. In series [2] (seen without CRF and at 50 and 100 nM, FIG. 22B), the “tau with increasing concentrations of CRF” value is recorded as “decrease”. The “sAPPα after exposure to CRF” value in series [2] (versus control, FIG. 21C) was “the same for control as for J17”. Moreover, the Aβ1-40/Aβ1-42 ratio result in the series with J20 mice (FIG. 26C) is on record as “no significant difference”. Moreover, the Aβ1-42 result in the series on J20 mice (data from all mice, FIG. 26A) is reported as “no significant differences”; with J20 mice (male mice, low outlier from one sibling pair eliminated, FIG. 26B), “significant reduction”. Moreover, the activity result with J20 mice (male and female J20 mice housed singly, oral 28 days, not significant, FIG. 24A) was “lowered”. Also, the p-tau entry in the series on J20 mice (male mice, FIG. 27B) is on record as “slightly lower”; in series [1] (SH-Sy5Y cells, FIG. 21B), “significantly lower”. In the series on J20 mice (male mice, FIG. 27C), the p-tau/tau ratio result is given as “lower still”. The Tau entry in the series with J20 mice (males, FIG. 27A) is reported as “increased”. The sAPPβ entry with J20 mice (oral 28 days, FIG. 25B) is “decrease”. Further, in the series with J20 mice (oral 28 days, all mice, FIG. 24B), the “novel object preference, overall” value is on record as “increase with J17 was significant”. In addition, the sAPPα result with J20 mice (oral 28 days, both genders, FIG. 25A) is “increase with J03 but not J17”. The “ratio sAPPα/sAPPβ” value in the series with J20 mice (oral 28 days, males, FIG. 25C) is “greater”. For the same compound, the tau result in series [1] (SH-Sy5Y cells, FIG. 21A) was “significantly lower”. The “tau and/or p-tau lowering effect compared with J03” value in series [1] was “greater”. Besides, the “plasma levels after subcutaneous injection” value in series [3] (10 mg/kg SQ, FIG. 23A) is given as about 4000 ng/m. Also, the “brain levels after subcutaneous injection” value in series [3] (10 mg/kg SQ) is given as about 400 ng/g. For the same compound, the “plasma levels relative to brain levels after oral delivery” value in series [3] (10 mg/kg oral, FIG. 23B) is given as about 10 fold. For the same compound, the “brain levels after oral delivery” value in series [3] (10 mg/kg oral, peak for J14) is on record as about 50 ng/g.

In the case of `CCC(COC)n1nnc2c(N(C)c3c(C)cc(C)cc3C)nc(C)nc21` (centres unmarked) [J14], in series [2] (setting [7]), the p-tau result is on record as “decreasing”; the “p-tau and tau decrease compared with J03” value is given as “more than J03”; the tau entry is on record as “decreasing”. In series [2] (setting [8]), the p-tau result is recorded as “decreased” and the total tau result is “decreased”. Besides, the tau protein result in the series with mice (B254 mice (Swedish, Indiana and D664A APP mutations), trend for both vehicle and J14 treated, FIGS. 31D-31F) was “trend for lower levels”. The Aβ1-40 result in the series on mice (daily SQ injection 10 mkd for 12 days, FIG. 31B) was “trend toward decrease”. Moreover, the Aβ1-42 entry with mice (daily SQ injection 10 mkd for 12 days, FIG. 31C) is on record as “trend toward decrease”. Also, the sAPPα result in the series on mice (daily SQ injection 10 mkd for 12 days, compared to vehicle treated mice, FIG. 31A) was “decrease”. The “tau and/or p-tau lowering effect compared with J03” value in series [1] is reported as “more than J03”. Moreover, in series [1] (screen of FIG. 28A), the p-tau entry was “decreased” and the total tau entry was “decreased”. In series [1] (screen of FIG. 28B), the p-tau entry is recorded as “neither J14 nor J03 decreased” and the total tau entry is on record as “neither J14 nor J03 decreased”. Further, in series [3] (10 mg/kg SQ), the “brain/plasma ratio after SQ injection” value is listed as 0.6, the “brain levels after subcutaneous injection” value amounted to 485 ng/g and the “time of peak levels after SQ injection” value was 2 h. For the same compound, the “plasma level at peak after subcutaneous injection” value in series [3] (10 mg/kg SQ, FIG. 30A) was found to be 798 ng/mL. Moreover, in series [3] (10 mg/kg oral, FIG. 30B), the “time of peak brain levels after oral feeding” value came to 2 h. Moreover, in series [3] (10 mg/kg oral, peak for J14), the “brain levels after oral delivery” value stood at 13.3 ng/g. Moreover, the “brain:plasma ratio after oral delivery” value in series [3] (oral feeding at 10 mg/kg) is on record as 1.33.
